Experimental data published in patent publication US10544106B2, “Certain chemical entities, compositions, and methods” (NeuPharma, Inc., priority 2016, dated 2020).

Target: BTK (Homo sapiens (Human), UniProt Q06187)
Test: Z'-LYTE kinase inhibition assay against BTK
Type: biochemical
Conditions: for inhibition at 0.1 µM: compound at 100 nM, ATP concentration at Km; for IC50: series of concentrations, GraphPad Prism 5
Method in brief: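 Z′-LYTE FRET readout: 1.04-10.4 ng BTK with 2 μM Tyr 01 peptide, ATP at Km, in 50 mM HEPES pH 7.5, 10 mM MgCl2, 1 mM EGTA, 0.01% BRIJ-35, 1% DMSO. 60 min kinase reaction at room temperature, then 60 min development; IC50 from 10-point, 3-fold titrations.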

Chain of BTK (Q06187 whole entry): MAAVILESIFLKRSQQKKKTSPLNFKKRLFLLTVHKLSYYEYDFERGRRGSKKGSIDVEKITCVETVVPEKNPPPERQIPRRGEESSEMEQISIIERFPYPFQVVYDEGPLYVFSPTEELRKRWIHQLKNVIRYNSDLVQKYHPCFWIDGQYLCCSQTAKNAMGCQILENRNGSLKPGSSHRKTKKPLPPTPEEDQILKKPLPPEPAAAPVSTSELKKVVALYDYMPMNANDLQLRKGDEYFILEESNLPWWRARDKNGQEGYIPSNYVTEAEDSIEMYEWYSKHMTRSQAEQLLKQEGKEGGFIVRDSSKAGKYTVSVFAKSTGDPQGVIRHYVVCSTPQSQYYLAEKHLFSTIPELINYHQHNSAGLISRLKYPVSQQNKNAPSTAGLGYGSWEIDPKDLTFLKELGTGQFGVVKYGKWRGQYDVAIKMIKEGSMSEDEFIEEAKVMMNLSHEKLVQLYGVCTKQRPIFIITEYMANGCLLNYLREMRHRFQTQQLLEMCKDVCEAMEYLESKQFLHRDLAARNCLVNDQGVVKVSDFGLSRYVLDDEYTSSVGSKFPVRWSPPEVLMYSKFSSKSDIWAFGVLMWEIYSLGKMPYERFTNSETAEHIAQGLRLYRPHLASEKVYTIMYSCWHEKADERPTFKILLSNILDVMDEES

| inhibition at 0.1 µM [%] | IC50 [nM] | Compound |
| --- | --- | --- |
| < 50 | – | C=CC(=O)N1CCC(c2cc(-c3ccc(Oc4cccc(F)c4)nc3)cc3cncnc23)C1 (stereo not drawn) [C095, 1-(3-(6-(6-(3-fluorophenoxy)pyridin-3-yl)quinazolin-8-yl)pyrrolidin-1-yl)prop-2-en-1-one] |
| > 50 | – | C=CC(=O)Nc1cccc(-c2cc(-c3ccc(Oc4ccccc4F)nc3)cc3cncnc23)c1 [C096, N-(3-(6-(6-(2-fluorophenoxy)pyridin-3-yl)quinazolin-8-yl)phenyl)acrylamide] |
| < 50 | – | C=CC(=O)N1CCC(c2cc(-c3ccc(C(=O)Nc4cccc(F)c4)nc3)cc3cncnc23)C1 (stereo not drawn) [C097, 5-(8-(1-acryloylpyrrolidin-3-yl)quinazolin-6-yl)-N-(3-fluorophenyl)picolinamide] |
| < 50 | – | C=CC(=O)Nc1cccc(-c2cc(-c3ccc(Oc4cc(C(F)(F)F)ccn4)cc3)cc3cnc(N)nc23)c1 [C098, N-(3-(2-amino-6-(4-((4-(trifluoromethyl)pyridin-2-yl)oxy)phenyl)quinazolin-8-yl)phenyl)acrylamide] |
| > 50 | – | C=CC(=O)Nc1cccc(-c2cc(-c3ccc(C(=O)N4CCOCC4)cc3)cc3cncnc23)c1 [C101, N-(3-(6-(4-(morpholine-4-carbonyl)phenyl)quinazolin-8-yl)phenyl)acrylamide] |
| > 50 | < 100 | C=CC(=O)Nc1cccc(-c2cc(-c3cncc(Cl)c3)cc3cnc(N)nc23)c1 [C103, N-(3-(2-amino-6-(5-chloropyridin-3-yl)quinazolin-8-yl)phenyl)acrylamide] |
| < 50 | – | C=CC(=O)N1CCC(c2cc(-c3ccc(Oc4cc(C(F)(F)F)ccn4)cc3)cc3cnc(N)nc23)C1 (stereo not drawn) [C104, 1-(3-(2-amino-6-(4-((4-(trifluoromethyl)pyridin-2-yl)oxy)phenyl)quinazolin-8-yl)pyrrolidin-1-yl)prop-2-en-1-one] |
| > 50 | < 100 | C=CC(=O)Nc1cccc(-c2cc(-c3ccc(Oc4ncccc4Cl)cc3F)cc3cncnc23)c1 [C106, N-(3-(6-(4-((3-chloropyridin-2-yl)oxy)-2-fluorophenyl)quinazolin-8-yl)phenyl)acrylamide] |
| > 50 | – | C=CC(=O)N1CCC(c2cc(-c3ccc(Oc4ccccn4)cc3)cc3cncnc23)C1 (stereo not drawn) [C107, 1-(3-(6-(4-(pyridin-2-yloxy)phenyl)quinazolin-8-yl)pyrrolidin-1-yl)prop-2-en-1-one] |
| > 50 | – | C=CC(=O)N1CCC(c2cc(-c3ccc(Oc4ncccc4F)cc3F)cc3cncnc23)C1 (stereo not drawn) [C108, 1-(3-(6-(2-fluoro-4-((3-fluoropyridin-2-yl)oxy)phenyl)quinazolin-8-yl)pyrrolidin-1-yl)prop-2-en-1-one] |
| < 50 | – | C=CC(=O)Nc1cccc(-c2cc(-c3ccc(C(=O)Nc4cc(C#N)ccn4)cc3)cc3cncnc23)c1 [C109, 4-(8-(3-acrylamidophenyl)quinazolin-6-yl)-N-(4-cyanopyridin-2-yl)benzamide] |
| > 50 | – | C=CC(=O)Nc1cccc(-c2cc(-c3cncc(OC)c3)cc3cnc(N)nc23)c1 [C110, N-(3-(2-amino-6-(5-methoxypyridin-3-yl)quinazolin-8-yl)phenyl)acrylamide] |
| > 50 | < 100 | C=CC(=O)Nc1cccc(-c2cc(-c3cncc(F)c3)cc3cnc(N)nc23)c1 [C111, N-(3-(2-amino-6-(5-fluoropyridin-3-yl)quinazolin-8-yl)phenyl)acrylamide] |
| < 50 | – | C=CC(=O)Nc1cccc(-c2cc(-c3ccc(C(=O)Nc4cccnc4)cc3)cc3cncnc23)c1 [C113, 4-(8-(3-acrylamidophenyl)quinazolin-6-yl)-N-(pyridin-3-yl)benzamide] |
| > 50 | – | C=CC(=O)N1CCC(c2cc(-c3ccc(Oc4ccccn4)cc3F)cc3cncnc23)C1 (stereo not drawn) [C114, 1-(3-(6-(2-fluoro-4-(pyridin-2-yloxy)phenyl)quinazolin-8-yl)pyrrolidin-1-yl)prop-2-en-1-one] |
| < 50 | – | C=CC(=O)N1CCC(c2cc(-c3ccc(C(=O)Nc4cccnc4)cc3)cc3cncnc23)C1 (stereo not drawn) [C115, 4-(8-(1-acryloylpyrrolidin-3-yl)quinazolin-6-yl)-N-(pyridin-3-yl)benzamide] |
| > 50 | < 100 | C=CC(=O)Nc1cccc(-c2cc(-c3ccc(C(=O)Nc4cc(C(F)(F)F)ccn4)cc3Cl)cc3cncnc23)c1 [C116, 4-(8-(3-acrylamidophenyl)quinazolin-6-yl)-3-chloro-N-(4-(trifluoromethyl)pyridin-2-yl)benzamide] |
| > 50 | < 100 | C=CC(=O)Nc1cccc(-c2cc(-c3ccc(Oc4cccnc4)cc3)cc3cncnc23)c1 [C117, N-(3-(6-(4-(pyridin-3-yloxy)phenyl)quinazolin-8-yl)phenyl)acrylamide] |

| inhibition at 0.1 µM [%] | IC50 [nM] | Compound |
| --- | --- | --- |
| > 50 | – | C=CC(=O)Nc1cccc(-c2cc(-c3ccccn3)cc3cncnc23)c1 [C118, N-(3-(6-(pyridin-2-yl)quinazolin-8-yl)phenyl)acrylamide] |
| > 50 | – | C=CC(=O)Nc1cccc(-c2cc(-c3ccc(Oc4ccccn4)c(OC)c3)cc3cncnc23)c1 [C119, N-(3-(6-(3-methoxy-4-(pyridin-2-yloxy)phenyl)quinazolin-8-yl)phenyl)acrylamide] |
| > 50 | < 100 | C=CC(=O)Nc1cccc(-c2cc(-c3ccc(C(=O)Nc4cc(C#N)ccn4)cc3Cl)cc3cncnc23)c1 [C122, 4-(8-(3-acrylamidophenyl)quinazolin-6-yl)-3-chloro-N-(4-cyanopyridin-2-yl)benzamide] |
| > 50 | – | C=CC(=O)N1CCC(c2cc(-c3ccc(C(=O)Nc4cc(C5CC5)ccn4)cc3)cc3cncnc23)C1 (stereo not drawn) [C123, 4-(8-(1-acryloylpyrrolidin-3-yl)quinazolin-6-yl)-N-(4-cyclopropylpyridin-2-yl)benzamide] |
| < 50 | – | C=CC(=O)N1CCC(c2cc(-c3ccc(C(=O)Nc4cc(C#N)ccn4)cc3)cc3cncnc23)C1 (stereo not drawn) [C124, 4-(8-(1-acryloylpyrrolidin-3-yl)quinazolin-6-yl)-N-(4-cyanopyridin-2-yl)benzamide] |
| > 50 | – | C=CC(=O)N1CCC(c2cc(-c3ccc(C(=O)Nc4cc(C(F)(F)F)ccn4)cc3)cc3cncnc23)C1 (stereo not drawn) [C125, 4-(8-(1-acryloylpyrrolidin-3-yl)quinazolin-6-yl)-N-(4-(trifluoromethyl)pyridin-2-yl)benzamide] |
| < 50 | – | C=CC(=O)N1CCC(c2cc(-c3ccc(C(=O)Nc4ccccn4)cc3F)n3cnccc23)C1 (stereo not drawn) [C126, 4-(5-(1-acryloylpyrrolidin-3-yl)pyrrolo[1,2-c]pyrimidin-7-yl)-3-fluoro-N-(pyridin-2-yl)benzamide] |
| < 50 | – | C=CC(=O)Nc1cccc(-c2cc(-c3ccc(C(=O)Nc4cc(C(F)(F)F)ccn4)c(F)c3)cc3cncnc23)c1 [C127, 4-(8-(3-acrylamidophenyl)quinazolin-6-yl)-2-fluoro-N-(4-(trifluoromethyl)pyridin-2-yl)benzamide] |
| < 50 | – | C=CC(=O)N1CCC(c2cc(-c3ccc(C(=O)Nc4cc(C(N)=O)ccn4)cc3)cc3cncnc23)C1 (stereo not drawn) [C128, 2-(4-(8-(1-acryloylpyrrolidin-3-yl)quinazolin-6-yl)benzamido)isonicotinamide] |
| > 50 | < 100 | C=CC(=O)Nc1cccc(-c2cc(-c3ccc(C(=O)Nc4cc(C(F)(F)F)ccn4)cc3F)cc3cncnc23)c1 [C129, 4-(8-(3-acrylamidophenyl)quinazolin-6-yl)-3-fluoro-N-(4-(trifluoromethyl)pyridin-2-yl)benzamide] |
| < 50 | – | C=CC(=O)N1CCC(c2cc(-c3ccc(C(=O)Nc4cc(C(F)(F)F)ccn4)cc3F)n3cnccc23)C1 (stereo not drawn) [C130, 4-(5-(1-acryloylpyrrolidin-3-yl)pyrrolo[1,2-c]pyrimidin-7-yl)-3-fluoro-N-(4-(trifluoromethyl)pyridin-2-yl)benzamide] |
| > 50 | < 100 | C=CC(=O)Nc1cccc(-c2cc(-c3ccc(C(=O)Nc4ccccn4)c(F)c3)cc3cncnc23)c1 [C132, 4-(8-(3-acrylamidophenyl)quinazolin-6-yl)-2-fluoro-N-(pyridin-2-yl)benzamide] |
| < 50 | – | C=CC(=O)N1CCC(c2cc(-c3ccc(Oc4ccccn4)cc3OC)cc3cncnc23)C1 (stereo not drawn) [C133, 1-(3-(6-(2-methoxy-4-(pyridin-2-yloxy)phenyl)quinazolin-8-yl)pyrrolidin-1-yl)prop-2-en-1-one] |
| > 50 | – | C=CC(=O)Nc1cccc(-c2cc(-c3ccc(C(=O)Nc4cc(C(N)=O)ccn4)cc3Cl)cc3cncnc23)c1 [C134, 2-(4-(8-(3-acrylamidophenyl)quinazolin-6-yl)-3-chlorobenzamido)isonicotinamide] |
| > 50 | – | C=CC(=O)N1CCC(c2cc(-c3ccc(C(=O)Nc4cc(C(F)(F)F)ccn4)cc3)n3cnccc23)C1 (stereo not drawn) [C136, 4-(5-(1-acryloylpyrrolidin-3-yl)pyrrolo[1,2-c]pyrimidin-7-yl)-N-(4-(trifluoromethyl)pyridin-2-yl)benzamide] |
| > 50 | < 100 | C=CC(=O)Nc1cccc(-c2cc(-c3ccc(C(=O)Nc4cc(C(F)(F)F)ccn4)cc3)cc3cncnc23)c1 [C137, 4-(8-(3-acrylamidophenyl)quinazolin-6-yl)-N-(4-(trifluoromethyl)pyridin-2-yl)benzamide] |
| < 50 | – | C=CC(=O)Nc1cccc(-c2cc(-c3ccc(C(=O)Nc4cc(C(N)=O)ccn4)cc3)cc3cncnc23)c1 [C138, 2-(4-(8-(3-acrylamidophenyl)quinazolin-6-yl)benzamido)isonicotinamide] |
| < 50 | – | C=CC(=O)Nc1cccc(-c2cc(-c3ccc(C(=O)Nc4cc(C5CC5)ccn4)c(OC)c3)cc3cncnc23)c1 [C140, 4-(8-(3-acrylamidophenyl)quinazolin-6-yl)-N-(4-cyclopropylpyridin-2-yl)-2-methoxybenzamide] |
